Each compound was assayed against FXR (Homo sapiens (Human), UniProt Q96RI1) (assay: transient human FXR/Gal4-luciferase reporter assay). Conditions: Gal4-hFXR fusion construct, HEK293 reporter cells; response relative to 8 μM GW-4064.
Format: cell-based
How it was run: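 HEK293 cells stably carrying a 5×Gal4 response element–firefly luciferase reporter were transiently transfected overnight with a Gal4 DBD–human FXR LBD fusion plasmid. Compound was added in DMSO and cells were incubated overnight at 37 °C, 5% CO2. Activity was read as Steady-Glo luminescence.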

Sequence of FXR (Q96RI1 262-486): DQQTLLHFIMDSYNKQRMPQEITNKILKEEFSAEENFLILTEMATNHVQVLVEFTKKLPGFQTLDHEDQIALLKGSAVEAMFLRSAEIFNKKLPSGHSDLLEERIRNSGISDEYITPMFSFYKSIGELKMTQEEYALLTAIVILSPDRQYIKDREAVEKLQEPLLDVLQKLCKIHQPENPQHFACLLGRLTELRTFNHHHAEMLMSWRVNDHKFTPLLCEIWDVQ

Compound | EC50
COc1ccc(-c2cccc(N(CC34CCC(c5nnc(C6CC6)o5)(CC3)CC4)C(=O)C34CC(F)(C3)C4)c2)cn1 [Example 343, N-((4-(5-cyclopropyl-1,3,4-oxadiazol-2-yl)bicyclo[2.2.2]octan-1-yl)methyl)-3-fluoro-N-(3-(6-methoxypyridin-3-yl)phenyl)bicyclo[1.1.1]pentane-1-carboxamide] | 154 nM
CS(=O)(=O)Nc1ccc(-c2cccc(N(CC34CCC(c5nnc(C6CC6)o5)(CC3)CC4)C(=O)C34CC(F)(C3)C4)c2)cc1 [Example 344, N-((4-(5-cyclopropyl-1,3,4-oxadiazol-2-yl)bicyclo[2.2.2]octan-1-yl)methyl)-3-fluoro-N-(4′-(methylsulfonamido)-[1,1′-biphenyl]-3-yl)bicyclo[1.1.1]pentane-1-carboxamide] | 293 nM
CS(=O)(=O)Nc1ccc(-c2cccc(N(CC34CCC(c5ccc(C6(C#N)CC6)cc5)(CC3)OC4)C(=O)C34CC(F)(C3)C4)c2)cc1 [Example 345, N-((1-(4-(1-Cyanocyclopropyl)phenyl)-2-oxabicyclo[2.2.2]octan-4-yl)methyl)-3-fluoro-N-(4′-(methylsulfonamido)-[1,1′-biphenyl]-3-yl)bicyclo[1.1.1]pentane-1-carboxamide] | 264 nM
Cc1nc2ccc(-c3cccc(N(CC45CCC(c6ccc(C7(C#N)CC7)cc6)(CC4)OC5)C(=O)C45CC(F)(C4)C5)c3)cc2s1 [Example 346, N-((1-(4-(1-cyanocyclopropyl)phenyl)-2-oxabicyclo[2.2.2]octan-4-yl)methyl)-3-fluoro-N-(3-(2-methylbenzo[d]thiazol-6-yl)phenyl)bicyclo[1.1.1]pentane-1-carboxamide] | 181 nM
Cc1nc2ccc(-c3cccc(N(CC45CCC(c6ccc(C7(C#N)CC7)cc6)(CC4)OC5)C(=O)C45CC(F)(C4)C5)c3)cc2o1 [Example 347, N-((1-(4-(1-cyanocyclopropyl)phenyl)-2-oxabicyclo[2.2.2]octan-4-yl)methyl)-3-fluoro-N-(3-(2-methylbenzo[d]oxazol-6-yl)phenyl)bicyclo[1.1.1]pentane-1-carboxamide] | 123 nM
COc1ccc(-c2cccc(N(CC34CCC(c5ccc(C6(C#N)CC6)cc5)(CC3)OC4)C(=O)C34CC(F)(C3)C4)c2)cc1 [Example 349, N-((1-(4-(1-cyanocyclopropyl)phenyl)-2-oxabicyclo[2.2.2]octan-4-yl)methyl)-3-fluoro-N-(4′-methoxy-[1,1′-biphenyl]-3-yl)bicyclo[1.1.1]pentane-1-carboxamide] | 130 nM
COc1ccc(-c2cccc(N(CC34CCC(c5ccc(C6(C#N)CC6)cc5)(CC3)OC4)C(=O)C34CC(F)(C3)C4)c2)cn1 [Example 350, N-((1-(4-(1-cyanocyclopropyl)phenyl)-2-oxabicyclo[2.2.2]octan-4-yl)methyl)-3-fluoro-N-(3-(6-methoxypyridin-3-yl)phenyl)bicyclo[1.1.1]pentane-1-carboxamide] | 296 nM
COc1ncc(-c2cccc(N(CC34CCC(c5ccc(C6(C#N)CC6)cc5)(CC3)OC4)C(=O)C34CC(F)(C3)C4)c2)cn1 [Example 351, N-((1-(4-(1-cyanocyclopropyl)phenyl)-2-oxabicyclo[2.2.2]octan-4-yl)methyl)-3-fluoro-N-(3-(2-methoxypyrimidin-5-yl)phenyl)bicyclo[1.1.1]pentane-1-carboxamide] | 266 nM
CCOc1ncc(-c2cccc(N(CC34CCC(c5ccc(C6(C#N)CC6)cc5)(CC3)OC4)C(=O)C34CC(F)(C3)C4)c2)cn1 [Example 352, N-((1-(4-(1-cyanocyclopropyl)phenyl)-2-oxabicyclo[2.2.2]octan-4-yl)methyl)-N-(3-(2-ethoxypyrimidin-5-yl)phenyl)-3-fluorobicyclo[1.1.1]pentane-1-carboxamide] | 167 nM
CCOc1ncc(-c2cccc(N(CC34CCC(c5nc(C6CC6)no5)(CC3)OC4)C(=O)C34CC(F)(C3)C4)c2)cn1 [Example 353, N-((1-(3-cyclopropyl-1,2,4-oxadiazol-5-yl)-2-oxabicyclo[2.2.2]octan-4-yl)methyl)-N-(3-(2-ethoxypyrimidin-5-yl)phenyl)-3-fluorobicyclo[1.1.1]pentane-1-carboxamide] | 328 nM
O=C(N(CC12CCC(c3cc(C(F)(F)F)ccn3)(CC1)CC2)c1cccc(-c2ccc(NS(=O)(=O)C3CC3)cc2)c1)C12CC(F)(C1)C2 [Example 354, N-(4′-(Cyclopropanesulfonamido)-[1,1′-biphenyl]-3-yl)-3-fluoro-N-((4-(4-(trifluoromethyl)pyridin-2-yl)bicyclo[2.2.2]octan-1-yl)methyl)bicyclo[1.1.1]pentane-1-carboxamide] | 489 nM
CS(=O)(=O)Nc1ccc(-c2cccc(N(CC34CCC(c5cc(C(F)(F)F)ccn5)(CC3)CC4)C(=O)C34CC(F)(C3)C4)c2)cc1 [Example 355, 3-fluoro-N-(4′-(methylsulfonamido)-[1,1′-biphenyl]-3-yl)-N-((4-(4-(trifluoromethyl)pyridin-2-yl)bicyclo[2.2.2]octan-1-yl)methyl)bicyclo[1.1.1]pentane-1-carboxamide] | 780 nM
Cc1nc2ccc(-c3cccc(N(CC45CCC(c6cc(C(F)(F)F)ccn6)(CC4)CC5)C(=O)C45CC(F)(C4)C5)c3)cc2s1 [Example 356, 3-fluoro-N-(3-(2-methylbenzo[d]thiazol-6-yl)phenyl)-N-((4-(4-(trifluoromethyl)pyridin-2-yl)bicyclo[2.2.2]octan-1-yl)methyl)bicyclo[1.1.1]pentane-1-carboxamide] | 800 nM
CCOc1ncc(-c2cccc(N(CC34CCC(c5nc(C(C)(C)C)no5)(CC3)CC4)C(=O)C34CC(F)(C3)C4)c2)cn1 [Example 357, N-((4-(3-(tert-butyl)-1,2,4-oxadiazol-5-yl)bicyclo[2.2.2]octan-1-yl)methyl)-N-(3-(2-ethoxypyrimidin-5-yl)phenyl)-3-fluorobicyclo[1.1.1]pentane-1-carboxamide] | 83 nM
CC(C)(C)c1noc(C23CCC(CN(C(=O)C45CC(F)(C4)C5)c4cccc(-c5cnc(C6CC6)nc5)c4)(CC2)CC3)n1 [Example 358, N-((4-(3-(tert-butyl)-1,2,4-oxadiazol-5-yl)bicyclo[2.2.2]octan-1-yl)methyl)-N-(3-(2-cyclopropylpyrimidin-5-yl)phenyl)-3-fluorobicyclo[1.1.1]pentane-1-carboxamide] | 154 nM
CCOc1ccc(-c2cccc(N(CC34CCC(c5nc(C(C)(C)C)no5)(CC3)CC4)C(=O)C34CC(F)(C3)C4)c2)cc1 [Example 359, N-((4-(3-(tert-butyl)-1,2,4-oxadiazol-5-yl)bicyclo[2.2.2]octan-1-yl)methyl)-N-(4′-ethoxy-[1,1′-biphenyl]-3-yl)-3-fluorobicyclo[1.1.1]pentane-1-carboxamide] | 151 nM
CCOc1ccc(-c2cccc(N(CC34CCC(c5nc(C(C)(C)C)no5)(CC3)CC4)C(=O)C34CC(F)(C3)C4)c2)cn1 [Example 360, N-((4-(3-(tert-butyl)-1,2,4-oxadiazol-5-yl)bicyclo[2.2.2]octan-1-yl)methyl)-N-(3-(6-ethoxypyridin-3-yl)phenyl)-3-fluorobicyclo[1.1.1]pentane-1-carboxamide] | 147 nM
CC(C)(C)c1noc(C23CCC(CN(C(=O)C45CC(F)(C4)C5)c4cccc(-c5ccc(NS(C)(=O)=O)cc5)c4)(CC2)CC3)n1 [Example 361, N-((4-(3-(tert-butyl)-1,2,4-oxadiazol-5-yl)bicyclo[2.2.2]octan-1-yl)methyl)-3-fluoro-N-(4′-(methylsulfonamido)-[1,1′-biphenyl]-3-yl)bicyclo[1.1.1]pentane-1-carboxamide] | 843 nM
Cc1nc2ccc(-c3cccc(N(CC45CCC(c6nc(C(C)(C)C)no6)(CC4)CC5)C(=O)C45CC(F)(C4)C5)c3)cc2s1 [Example 362, N-((4-(3-(tert-butyl)-1,2,4-oxadiazol-5-yl)bicyclo[2.2.2]octan-1-yl)methyl)-3-fluoro-N-(3-(2-methylbenzo[d]thiazol-6-yl)phenyl)bicyclo[1.1.1]pentane-1-carboxamide] | 204 nM
COc1ncc(-c2cccc(N(CC34CCC(c5nc(C(C)(C)C)no5)(CC3)CC4)C(=O)C34CC(F)(C3)C4)c2)cn1 [Example 363, N-((4-(3-(tert-butyl)-1,2,4-oxadiazol-5-yl)bicyclo[2.2.2]octan-1-yl)methyl)-3-fluoro-N-(3-(2-methoxypyrimidin-5-yl)phenyl)bicyclo[1.1.1]pentane-1-carboxamide] | 70 nM
CC(C)(C)c1noc(C23CCC(CN(C(=O)C45CC(F)(C4)C5)c4cccc(-c5ccc(NS(C)(=O)=O)nc5)c4)(CC2)CC3)n1 [Example 364, N-((4-(3-(tert-butyl)-1,2,4-oxadiazol-5-yl)bicyclo[2.2.2]octan-1-yl)methyl)-3-fluoro-N-(3-(6-(methylsulfonamido)pyridin-3-yl)phenyl)bicyclo[1.1.1]pentane-1-carboxamide] | 509 nM
Cc1nc2ncc(-c3cccc(N(CC45CCC(c6nc(C(C)(C)C)no6)(CC4)CC5)C(=O)C45CC(F)(C4)C5)c3)cc2s1 [Example 365, N-((4-(3-(tert-butyl)-1,2,4-oxadiazol-5-yl)bicyclo[2.2.2]octan-1-yl)methyl)-3-fluoro-N-(3-(2-methylthiazolo[4,5-b]pyridin-6-yl)phenyl)bicyclo[1.1.1]pentane-1-carboxamide] | 84 nM
CC(C)(C)c1noc(C23CCC(CN(C(=O)C45CC(F)(C4)C5)c4cccc(-c5cnc(C(F)(F)F)nc5)c4)(CC2)CC3)n1 [Example 366, N-((4-(3-(tert-butyl)-1,2,4-oxadiazol-5-yl)bicyclo[2.2.2]octan-1-yl)methyl)-3-fluoro-N-(3-(2-(trifluoromethyl)pyrimidin-5-yl)phenyl)bicyclo[1.1.1]pentane-1-carboxamide] | 454 nM
CC(C)(C)c1noc(C23CCC(CN(C(=O)C45CC(F)(C4)C5)c4cccc(-c5cnc(NS(C)(=O)=O)nc5)c4)(CC2)CC3)n1 [Example 367, N-((4-(3-(tert-butyl)-1,2,4-oxadiazol-5-yl)bicyclo[2.2.2]octan-1-yl)methyl)-3-fluoro-N-(3-(2-(methylsulfonamido)pyrimidin-5-yl)phenyl)bicyclo[1.1.1]pentane-1-carboxamide] | 645 nM
